Results taken from patent US12617773B2, “Azetidin-3-ylmethanol derivatives as CCR6 receptor modulators” (Idorsia Pharmaceuticals Ltd, priority 2020, dated 2026).

These compounds were tested against T1, human CCR6 (Homo sapiens, UniProt P51684) (assay: FLIPR assay (inhibition of CCL20-induced calcium signal)). Settings: FLIPR IC50 (nM), HEK-293 cells expressing human CCR6; mean values where determined several times.
T1 construct: expressed in transfected cells; host or cells: HEK-293
T1 sequence (P51684 1-374): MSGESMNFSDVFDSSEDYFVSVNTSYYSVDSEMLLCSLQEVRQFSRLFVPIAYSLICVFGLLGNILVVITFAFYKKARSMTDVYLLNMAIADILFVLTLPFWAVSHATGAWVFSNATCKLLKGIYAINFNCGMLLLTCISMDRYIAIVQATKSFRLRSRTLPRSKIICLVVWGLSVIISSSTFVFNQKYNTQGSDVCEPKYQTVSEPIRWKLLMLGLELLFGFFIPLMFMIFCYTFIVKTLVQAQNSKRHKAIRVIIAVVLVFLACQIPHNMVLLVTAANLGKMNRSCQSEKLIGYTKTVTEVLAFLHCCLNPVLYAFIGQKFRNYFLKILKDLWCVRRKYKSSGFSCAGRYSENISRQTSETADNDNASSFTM
Assay type: cell-based
Method in brief: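 Dye-loaded HEK-293 cells expressing human CCR6 were preincubated with compound for 30 min at room temperature in the dark, then challenged with 10 nM CCL20 (final). Fluorescence was tracked on FLIPR, and baseline-subtracted peak emission over base after agonist addition gave inhibition dose-response curves for IC50.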
With CN1CC(C)(C(O)(c2ccc(C(C)(C)C)cc2)c2cncc(N3CCCC3)c2)C1 (stereo not drawn) [Example 157] the IC50 was 27.7 nM.

Same assay, conditions: HEK-293 cells expressing human CCR6; mean values where determined several times; read-out: FLIPR IC50
With CC(C)c1ccc([C@](O)(c2cncc(-c3noc(C4CC45CCOCC5)n3)c2)C2(C)CN(C)C2)cc1 (stereo partly drawn) [Example 114] the IC50 was 38 nM.
In the case of CC(C)c1ccc([C@](O)(c2cncc(-c3noc(C4CCCOC4)n3)c2)C2(C)CN(C)C2)cc1 (stereo partly drawn) [Example 115], the IC50 is reported as 41 nM.
In the case of CC(C)c1ccc([C@](O)(c2cncc(-c3noc(CC4CCCO4)n3)c2)C2(C)CN(C)C2)cc1 (stereo partly drawn) [Example 116], the IC50 is reported as 40.8 nM.
Compound CC(C)c1ccc([C@](O)(c2cncc(-c3noc([C@@](C)(O)C(F)(F)F)n3)c2)C2(C)CN(C)C2)cc1 [Example 117] has an IC50 of 20.1 nM.
COC(C)(C)c1nc(-c2cncc([C@@](O)(c3ccc(C(C)C)cc3)C3(C)CN(C)C3)c2)no1 [Example 118] was tested, and the IC50 was 43.1 nM.
CC(C)c1ccc([C@](O)(c2cncc(-c3noc([C@H](O)C4CCCCC4)n3)c2)C2(C)CN(C)C2)cc1 [Example 119] showed an IC50 of 20.5 nM.
With CC(C)c1ccc([C@](O)(c2cncc(-c3noc(C4(O)CC4)n3)c2)C2(C)CN(C)C2)cc1 [Example 120] the IC50 was 59.2 nM.
With CC(C)c1ccc([C@](O)(c2cncc(-c3noc(C(C)(C)O)n3)c2)C2(C)CN(C)C2)cc1 [Example 121] the IC50 was 57.7 nM.
Compound CC(C)c1ccc([C@](O)(c2cncc(-c3noc(C4(O)CCCC4)n3)c2)C2(C)CN(C)C2)cc1 [Example 122] has an IC50 of 42.1 nM.
CC(C)c1ccc([C@](O)(c2cncc(-c3noc(C4CC(O)C4)n3)c2)C2(C)CN(C)C2)cc1 (stereo partly drawn) [Example 123] showed an IC50 of 46.9 nM.
In the case of CC(C)c1ccc([C@](O)(c2cncc(-c3noc(C4(F)CCOCC4)n3)c2)C2(C)CN(C)C2)cc1 [Example 124], the IC50 is reported as 35.9 nM.
With CC(C)c1ccc([C@](O)(c2cncc(-c3noc([C@H]4C[C@@H](C)O[C@@H](C)C4)n3)c2)C2(C)CN(C)C2)cc1 [Example 125] the IC50 was 46.9 nM.
In the case of CC(C)c1ccc([C@](O)(c2cncc(-c3noc(COC4CCOCC4)n3)c2)C2(C)CN(C)C2)cc1 [Example 126], the IC50 is reported as 84.9 nM.
Work on CC(C)c1ccc([C@](O)(c2cncc(-c3noc(C(C)(C)C4CCOCC4)n3)c2)C2(C)CN(C)C2)cc1 [Example 127] yielded an IC50 of 32.4 nM.
Work on CC(C)c1ccc([C@](O)(c2cncc(-c3noc(CCC4CCOCC4)n3)c2)C2(C)CN(C)C2)cc1 [Example 128] yielded an IC50 of 40.3 nM.
For CC(C)c1ccc([C@](O)(c2cncc(-c3noc(C4(O)CCC4)n3)c2)C2(C)CN(C)C2)cc1 [Example 129], the IC50 was 35.9 nM.
Work on CC(C)c1ccc([C@](O)(c2cncc(-c3noc(CC(C)(C)O)n3)c2)C2(C)CN(C)C2)cc1 [Example 130] yielded an IC50 of 74.7 nM.
Compound CC(C)c1ccc([C@](O)(c2cncc(-c3noc(C4CC5CCC4O5)n3)c2)C2(C)CN(C)C2)cc1 (stereo partly drawn) [Example 131] has an IC50 of 60.8 nM.
CC(C)c1ccc([C@](O)(c2cncc(-c3noc(COC4(C)CCOCC4)n3)c2)C2(C)CN(C)C2)cc1 [Example 132] gave an IC50 of 50.1 nM.
CC(C)c1ccc([C@](O)(c2cncc(-c3noc(C4COC4)n3)c2)C2(C)CN(C)C2)cc1 [Example 133] was tested, and the IC50 was 74.5 nM.
Compound COCC(C)(C)c1nc(-c2cncc([C@@](O)(c3ccc(C(C)C)cc3)C3(C)CN(C)C3)c2)no1 [Example 134, (R)-(1,3-Dimethyl-azetidin-3-yl)-(4-isopropyl-phenyl)-{5-[5-(2-methoxy-1,1-dimethyl-ethyl)-[1,2,4]oxadiazol-3-yl]-pyridin-3-yl}-methanol] has an IC50 of 62 nM.
In the case of CC(C)c1ccc([C@](O)(c2cncc(-c3noc(C(C)(C)CO)n3)c2)C2(C)CN(C)C2)cc1 [Example 135], the IC50 is reported as 74 nM.
With COC(C)(C)Cc1nc(-c2cncc([C@@](O)(c3ccc(C(C)C)cc3)C3(C)CN(C)C3)c2)no1 [Example 136] the IC50 was 123 nM.
For CC(C)c1ccc([C@](O)(c2cncc(-c3noc(CC4(O)CCC4)n3)c2)C2(C)CN(C)C2)cc1 [Example 137], the IC50 was 60.3 nM.
In the case of COCC1(Cc2nc(-c3cncc([C@@](O)(c4ccc(C(C)C)cc4)C4(C)CN(C)C4)c3)no2)CC1 [Example 138], the IC50 is reported as 45.8 nM.
CC(C)c1ccc([C@](O)(c2cncc(-c3noc(CCn4cccn4)n3)c2)C2(C)CN(C)C2)cc1 [Example 139, (R)-(1,3-Dimethyl-azetidin-3-yl)-(4-isopropyl-phenyl)-{5-[5-(2-pyrazol-1-yl-ethyl)-[1,2,4]oxadiazol-3-yl]-pyridin-3-yl}-methanol] showed an IC50 of 66.6 nM.
Work on [2H]C([2H])([2H])C(=O)NCCc1nc(-c2cncc([C@@](O)(c3ccc(C(C)C)cc3)C3(C)CN(C)C3)c2)no1 [Example 140, (R)—N-(2-(3-(5-((1,3-dimethylazetidin-3-yl)(hydroxy)(4-isopropylphenyl)methyl)pyridin-3-yl)-1,2,4-oxadiazol-5-yl)ethyl)acetamide-2,2,2-d3] yielded an IC50 of 681 nM.
[2H]C([2H])([2H])C(=O)NC(C)(C)Cc1nc(-c2cncc([C@@](O)(c3ccc(C(C)C)cc3)C3(C)CN(C)C3)c2)no1 [Example 141] showed an IC50 of 211 nM.
Compound CC(C)c1ccc([C@](O)(c2cncc(-c3noc(C4CCN(C(=O)CO)CC4)n3)c2)C2(C)CN(C)C2)cc1 [Example 142] has an IC50 of 274 nM.
[2H]C([2H])([2H])C(=O)N1CCC(c2nc(-c3cncc([C@@](O)(c4ccc(C(C)C)cc4)C4(C)CN(C)C4)c3)no2)CC1 [Example 143] was tested, and the IC50 was 188 nM.
Compound CC(C)c1ccc([C@](O)(c2cncc(-c3noc(CCN(C)C(=O)CO)n3)c2)C2(C)CN(C)C2)cc1 [Example 144, N-[2-(3-{5-[(R)-(1,3-Dimethyl-azetidin-3-yl)-hydroxy-(4-isopropyl-phenyl)-methyl]-pyridin-3-yl}-[1,2,4]oxadiazol-5-yl)-ethyl]-2-hydroxy-N-methyl-acetamide] has an IC50 of 376 nM.
[2H]C([2H])([2H])C(=O)N(C)CCc1nc(-c2cncc([C@@](O)(c3ccc(C(C)C)cc3)C3(C)CN(C)C3)c2)no1 [Example 145, (R)—N-(2-(3-(5-((1,3-dimethylazetidin-3-yl)(hydroxy)(4-isopropylphenyl)methyl)pyridin-3-yl)-1,2,4-oxadiazol-5-yl)-ethyl)-N-methylacetamide-d3] gave an IC50 of 274 nM.
Work on COc1ccc(C(O)(c2ccc(OC(F)(F)F)cc2)C2(C)CN(C)C2)cn1 (stereo not drawn) [Example 146, (1,3-Dimethyl-azetidin-3-yl)-(6-methoxy-pyridin-3-yl)-(4-trifluoromethoxy-phenyl)-methanol] yielded an IC50 of 309 nM.
In the case of CN1CC(C)(C(O)(c2ccc(OC(F)(F)F)cc2)c2ccc(Oc3ccccc3)nc2)C1 (stereo not drawn) [Example 147], the IC50 is reported as 63.5 nM.
Compound CCCc1ccc(C(O)(c2cncc(N3CCCC3)c2)C2(C)CN(C)C2)cc1 (stereo not drawn) [Example 150, (1,3-Dimethyl-azetidin-3-yl)-(4-propyl-phenyl)-(5-pyrrolidin-1-yl-pyridin-3-yl)-methanol] has an IC50 of 35.8 nM.
Compound COc1ccc(C(O)(c2cncc(N3CCCC3)c2)C2(C)CN(C)C2)cc1 (stereo not drawn) [Example 151] has an IC50 of 336 nM.
For CCc1ccc(C(O)(c2cncc(N3CCCC3)c2)C2(C)CN(C)C2)cc1 (stereo not drawn) [Example 152], the IC50 was 60.2 nM.
CN1CC(C)(C(O)(c2ccccc2)c2cncc(N3CCCC3)c2)C1 (stereo not drawn) [Example 153] was tested, and the IC50 was 214 nM.
For CN1CC(C)(C(O)(c2ccc(C3CCC3)cc2)c2cncc(N3CCCC3)c2)C1 (stereo not drawn) [Example 154], the IC50 was 36.8 nM.
CN1CC(C)(C(O)(c2ccc(OC3CCC3)cc2)c2cncc(N3CCCC3)c2)C1 (stereo not drawn) [Example 155] was tested, and the IC50 was 28 nM.
Compound CCOc1ccc(C(O)(c2cncc(N3CCCC3)c2)C2(C)CN(C)C2)cc1 (stereo not drawn) [Example 156] has an IC50 of 147 nM.
Compound CC(C)Oc1ccc(C(O)(c2cncc(N3CCCC3)c2)C2(C)CN(C)C2)cc1 (stereo not drawn) [Example 158] has an IC50 of 222 nM.
In the case of CN1CC(C)(C(O)(c2ccc(C3(C(F)(F)F)CC3)cc2)c2cncc(N3CCCC3)c2)C1 (stereo not drawn) [Example 159], the IC50 is reported as 91.6 nM.
CN1CC(C)(C(O)(c2ccc(C3(C)CC3)cc2)c2cncc(N3CCCC3)c2)C1 (stereo not drawn) [Example 160] showed an IC50 of 82.9 nM.
CN1CC(C)(C(O)(c2ccc(OC3CC3)cc2)c2cncc(N3CCCC3)c2)C1 (stereo not drawn) [Example 161] showed an IC50 of 202 nM.
CC(C)c1ccc([C@](O)(c2ccnc(N3CCC(F)(F)C3)c2)C2(C)CN(C)C2)cc1 [Example 162, (S)-[2-(3,3-Difluoro-pyrrolidin-1-yl)-pyridin-4-yl]-(1,3-dimethyl-azetidin-3-yl)-(4-isopropyl-phenyl)-methanol] was tested, and the IC50 was 43.4 nM.
With CC(C)c1ccc([C@](O)(c2ccnc(N3C[C@@H](F)[C@@H](F)C3)c2)C2(C)CN(C)C2)cc1 [Example 163, (S)-[2-((3R,4S)-3,4-Difluoro-pyrrolidin-1-yl)-pyridin-4-yl]-(1,3-dimethyl-azetidin-3-yl)-(4-isopropyl-phenyl)-methanol] the IC50 was 24.6 nM.
CC(C)COc1cc([C@@](O)(c2ccc(C(C)C)cc2)C2(C)CN(C)C2)ccn1 [Example 164, (S)-(1,3-Dimethyl-azetidin-3-yl)-(2-isobutoxy-pyridin-4-yl)-(4-isopropyl-phenyl)-methanol] showed an IC50 of 18.9 nM.
In the case of CC(C)c1ccc([C@](O)(c2ccnc(CCC(C)(C)O)c2)C2(C)CN(C)C2)cc1 [Example 165, 4-{4-[(S)-(1,3-Dimethyl-azetidin-3-yl)-hydroxy-(4-isopropyl-phenyl)-methyl]-pyridin-2-yl}-2-methyl-butan-2-ol], the IC50 is reported as 677 nM.
CC(C)c1ccc([C@](O)(c2cnnc(N3CCC(F)(F)C3)c2)C2(C)CN(C)C2)cc1 [Example 166, (R)-[6-(3,3-Difluoro-pyrrolidin-1-yl)-pyridazin-4-yl]-(1,3-dimethyl-azetidin-3-yl)-(4-isopropyl-phenyl)-methanol] was tested, and the IC50 was 85.3 nM.
